One experiment deals with Hep3B cells. In words: Hep3B cell proliferation (CellTiter-Glo, 72 hours). Format: cell-based. The following applies: read-out: Hep3B IC50. As to the method:
1. Test method: inoculating Hep3B cells (ATCC) in logarithmic growth phase at an appropriate density in a 96-well culture plate, with 100 μL per well. After overnight culture, different concentrations of compounds were added to stay for 72 hours, and menstruum control group (negative control) was set, and the incubation was performed under the condition of 5% CO2 at 37° C. Adding 10 mM compound stock solution to the cells, after the cells were incubated with the compounds for 72 hours, the effects of the compounds on cell proliferation were determined by CellTiter-Glo (Promega) method. 30 μL CTG reagent was added to each well and the resulting mixtures were placed in a 37° C. incubator for 2-4 hours. Then the plate was read by a full-wavelength microplate enzyme reader Envision at a […].
The inhibition rates (%) of the compounds on tumor cell growth were calculated by the following formula: inhibition rate (%)=(OD negative control well−OD administration well)/OD negative control well×100%. IC50 values were obtained by four parameters regression using Graphpad Prism 5 software.
(In ATP-based viability assays light output follows the ATP content of the culture.)

A further experiment concerns the target FGFR1 (Homo sapiens (Human), UniProt P11362). Nature of the experiment: Inhibitory activity on kinase FGFR1 (Caliper mobility shift). Format: biochemical. The following applies: read-out: FGFR1 IC50. As to the method: (§1) (1). Preparation of 1×Kinase buffer; (2) Preparation of the gradient concentrations of the compounds: the concentration of the compounds to be tested started from 10 μM, which was 3-fold diluted to prepare 10 dilutions, and then tested in duplicated wells. The compounds were 100-fold serially diluted into 10 dilutions with different final concentrations in 96-well plates, each of which was further diluted with 1×Kinase buffer to prepare an intermediate dilution having a concentration of 5 times the final concentration; (3) adding 5 μL of each of the prepared compound solution into the compound wells of 384-well plates, and each concentration set single well; adding 5 μL of 5% DMSO into negative control wells and positive control wells respectively; (4) preparing a kinase solution having a concentration of 2.5 times the final concentration with 1×kinase buffer; (5) adding 10 μL of kinase solution at a concentration of 2.5 times the final concentration into the compound wells and the positive control wells respectively; and adding 10 μL of 1×Kinase buffer into the negative control wells; (6) centrifuging at 1000 rpm for 30 seconds, and incubating at room temperature for 10 minutes after shaking and mixing evenly; (7) preparing a mixed solution of ATP and Kinase substrate 22 having a concentration of 2.5 times the final concentration with 1×Kinase Buffer; (8) adding 10 μL of the mixed solution of ATP and substrate at a concentration of 2.5 times the final concentration to initiate the reaction; (9) Centrifuging the 384-well plates at 1000 rpm for 30 seconds, and incubating at 28° C. for corresponding time respectively after shaking and mixing; (10) adding 30 μL of stop detection solution to stop the kinase reaction, centrifuging at 1000 rpm for 30 seconds, and shaking and mixing the mixture evenly; (11) reading the conversion rate by Caliper Ezreader II. The dose-effect curve was fitted by the log (inhibitor) vs. response-variable slope of GraphPad Prism 5 with the log value of concentration as the X axis and the percentage inhibition rate as the Y axis, then the IC50 value of each compound on the enzyme activity was obtained.

Another experiment concerns the target FGFR4 (Homo sapiens (Human), UniProt P22455). In words: Inhibitory activity on kinase FGFR4 (Caliper mobility shift). Format: biochemical. The conditions noted are these: read-out: FGFR4 IC50. As to the method:
as §1

In US11267815B2, “Class of amino-substituted nitrogen-containing fused ring compounds, preparation method therefor, and use thereof” (SHANGHAI RINGENE BIOPHARMA CO., LTD., priority 2017, dated 2022) one finds IC50 data, which are given here for 17 compounds.

Like-named read-outs stand apart in the source and are kept apart here. Bounds are passed on as bounds.

Chain of FGFR1 (P11362 22-822): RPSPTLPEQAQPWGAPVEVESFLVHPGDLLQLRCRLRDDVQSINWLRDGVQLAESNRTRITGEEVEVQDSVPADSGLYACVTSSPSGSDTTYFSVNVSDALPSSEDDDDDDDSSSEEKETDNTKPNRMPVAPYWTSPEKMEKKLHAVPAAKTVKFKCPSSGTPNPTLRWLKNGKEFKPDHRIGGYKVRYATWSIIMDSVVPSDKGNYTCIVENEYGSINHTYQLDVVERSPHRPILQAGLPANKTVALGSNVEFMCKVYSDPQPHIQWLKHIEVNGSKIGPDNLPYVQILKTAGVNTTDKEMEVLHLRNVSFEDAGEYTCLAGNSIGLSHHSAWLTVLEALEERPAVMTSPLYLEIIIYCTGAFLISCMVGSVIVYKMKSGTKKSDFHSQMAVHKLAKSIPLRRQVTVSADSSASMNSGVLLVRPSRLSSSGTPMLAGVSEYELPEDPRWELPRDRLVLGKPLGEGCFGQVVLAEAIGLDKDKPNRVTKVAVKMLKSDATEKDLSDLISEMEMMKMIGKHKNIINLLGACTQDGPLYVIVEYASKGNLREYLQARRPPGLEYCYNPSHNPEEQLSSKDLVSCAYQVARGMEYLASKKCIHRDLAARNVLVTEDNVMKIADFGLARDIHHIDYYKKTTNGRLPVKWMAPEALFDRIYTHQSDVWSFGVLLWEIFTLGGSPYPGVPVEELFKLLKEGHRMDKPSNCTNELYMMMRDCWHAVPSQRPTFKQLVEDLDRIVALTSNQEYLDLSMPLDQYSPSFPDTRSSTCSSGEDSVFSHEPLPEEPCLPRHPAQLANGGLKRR
Chain of FGFR4 (P22455 22-802): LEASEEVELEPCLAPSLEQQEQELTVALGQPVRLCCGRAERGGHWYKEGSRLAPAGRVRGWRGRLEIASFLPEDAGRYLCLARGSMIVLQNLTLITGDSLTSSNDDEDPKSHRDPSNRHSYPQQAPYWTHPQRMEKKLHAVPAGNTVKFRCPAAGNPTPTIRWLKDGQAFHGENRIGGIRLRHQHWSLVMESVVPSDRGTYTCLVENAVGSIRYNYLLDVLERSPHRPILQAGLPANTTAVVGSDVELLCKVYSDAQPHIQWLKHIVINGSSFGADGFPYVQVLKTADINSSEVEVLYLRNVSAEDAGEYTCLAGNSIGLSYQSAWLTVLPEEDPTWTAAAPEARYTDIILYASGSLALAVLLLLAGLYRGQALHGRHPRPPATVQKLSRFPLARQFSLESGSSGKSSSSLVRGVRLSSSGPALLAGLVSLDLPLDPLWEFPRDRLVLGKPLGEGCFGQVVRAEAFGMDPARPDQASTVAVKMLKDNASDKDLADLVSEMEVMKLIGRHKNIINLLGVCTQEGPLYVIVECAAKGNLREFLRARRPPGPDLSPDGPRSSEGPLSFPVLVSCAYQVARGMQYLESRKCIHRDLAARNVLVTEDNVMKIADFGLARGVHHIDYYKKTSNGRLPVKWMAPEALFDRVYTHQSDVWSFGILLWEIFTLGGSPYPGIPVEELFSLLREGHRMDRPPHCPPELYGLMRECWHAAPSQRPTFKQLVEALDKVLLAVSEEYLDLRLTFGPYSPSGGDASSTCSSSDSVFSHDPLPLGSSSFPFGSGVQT

In general, IC50 refers to the concentration that gives 50% inhibition. As to `C=CC(=O)N1CCN(CCCc2cn3c(n2)c(-c2c(Cl)c(OC)cc(OC)c2Cl)cc2cnc(NCC4CCOC4)nc23)CC1` (stereo not drawn) [Embodiment 11], the IC50 is 20 to 200 nM in the experiment with Hep3B cells (Homo sapiens, Hep3B); less than 20 nM on FGFR1; less than 20 nM at FGFR4.
For `C=CC(=O)N1CCN(CCCc2cn3c(n2)c(-c2c(Cl)c(OC)cc(OC)c2Cl)cc2cnc(NCC(C)(C)O)nc23)CC1` [Embodiment 12], the 50% inhibitory concentration (IC50) is 20 to 200 nM in the experiment on Hep3B cells (Homo sapiens, Hep3B); less than 20 nM on FGFR1; less than 20 nM at FGFR4.
Take `C=CC(=O)N1CCN(CCCc2cn3c(n2)c(-c2c(Cl)c(OC)cc(OC)c2Cl)cc2cnc(NCCN4CCN(C)CC4)nc23)CC1` [Embodiment 7, 1-(4-(3-(6-(2,6-dichloro-3,5-dimethoxyaniline)-2-((2-(4-methylpiperazine-1-yl)ethylethyl)amino)imidazo[1′,2′:1,6]pyrido[2,3-d]pyrimidin-8-yl)propyl)piperazine-1-yl)prop-2-en-1-one]: the IC50 is 20 to 200 nM in the experiment on Hep3B cells (Homo sapiens, Hep3B); less than 20 nM on FGFR1; less than 20 nM on FGFR4.
With `C=CC(=O)N1CCN(CCCc2cn3c(n2)c(-c2c(Cl)c(OC)cc(OC)c2Cl)cc2cnc(NCC)nc23)CC1` [Embodiment 8], the IC50 is less than 20 nM in the experiment with Hep3B cells (Homo sapiens, Hep3B); less than 20 nM at FGFR1; less than 20 nM at FGFR4.
On to `C=CC(=O)N1CCN(Cc2cn3c(n2)c(-c2c(Cl)c(OC)cc(OC)c2Cl)cc2cnc(NC)nc23)CC1` [Embodiment 16, 1-(4-((6-(2,6-dichloro-3,5-phenyldimethoxyphenyl)-2-(methylamine)imidazo[1′,2′:1,6]pyrido[2,3-d]pyrimidin-8-yl)methyl)piperazine-1-yl)acrylamide], for which the IC50 with Hep3B cells (Homo sapiens, Hep3B) is 20 to 200 nM; at FGFR1, less than 20 nM; on FGFR4, greater than 200 nM.
Take `C=CC(=O)N1CCN(CC(C)(C)Cc2cn3c(n2)c(-c2c(Cl)c(OC)cc(OC)c2Cl)cc2cnc(NC)nc23)CC1` [Embodiment 15, 1-(4-(3-(6-(2,6-dichloro-3,5-dimethoxyaniline)-2-(methylamine)imidazo[1′,2′:1,6]pyrido[2,3-d]pyrimidin-8-yl)-2,2-dimethylpropyl)piperazine-1-yl)prop-2-en-1-one]: the IC50 in the experiment with Hep3B cells (Homo sapiens, Hep3B) was 20 to 200 nM; on FGFR1, less than 20 nM; on FGFR4, 20 to 200 nM.
Consider `C=CC(=O)N1CCN(CCCc2cn3c(n2)c(-c2c(Cl)c(OC)cc(OC)c2Cl)cc2cnc(NCCC#N)nc23)CC1` [Embodiment 13], for which the IC50 with Hep3B cells (Homo sapiens, Hep3B) was 20 to 200 nM; on FGFR1, less than 20 nM; on FGFR4 it was less than 20 nM.
Take `C=CC(=O)N1CCN(c2cccc(-c3cn4c(n3)c(-c3c(Cl)c(OC)cc(OC)c3Cl)cc3cnc(NC)nc34)c2)CC1` [Embodiment 18, 1-(4-(3-(6-(2,6-dichloro-3,5-dimethoxyphenyl)-2-(methylamine)imidazo[1′,2′:1,6]pyrido[2,3-d]pyrimidin-8-yl)phenyl)piperazine-1-yl)acrylamide]: the IC50 in the experiment with Hep3B cells was 20 to 200 nM; at FGFR1, less than 20 nM; on FGFR4, greater than 200 nM.
In the case of `C=CC(=O)N1CCN(CCCc2cn3c(n2)c(-c2c(Cl)c(OC)cc(OC)c2Cl)cc2cnc(NCCOC)nc23)CC1` [Embodiment 6, 1-(4-(3-(6-(2,6-dichloro-3,5-dimethoxyaniline)-2-((2-methoxyethyl)amino)imidazo[1′,2′:1,6]pyrido[2,3-d]pyrimidin-8-yl)propyl)piperazine-1-yl)prop-2-en-1-one], the IC50 in the experiment on Hep3B cells (Homo sapiens, Hep3B) is less than 20 nM; on FGFR1 it was less than 20 nM; on FGFR4 it was less than 20 nM.
Take `C=CC(=O)NCc1cccc(-c2cn3c(n2)c(-c2c(Cl)c(OC)cc(OC)c2Cl)cc2cnc(NC)nc23)c1` [Embodiment 19, N-(3-(6-(2,6-dichloro-3,5-dimethoxyphenyl)-2-(methylamino)imidazo[1′,2′:1,6]pyrido[2,3-d]pyrimidin-8-yl)benzyl)acrylamide]: the IC50 in the experiment on Hep3B cells (Homo sapiens, Hep3B) was 20 to 200 nM; at FGFR1, less than 20 nM; on FGFR4, greater than 200 nM.
As for `C=CC(=O)N1CCN(CCCc2cn3c(n2)c(-c2c(Cl)c(OC)cc(OC)c2Cl)cc2cnc(NCC4CC4)nc23)CC1` [Embodiment 4], the IC50 in the experiment on Hep3B cells (Homo sapiens, Hep3B) is less than 20 nM; on FGFR1, less than 20 nM; at FGFR4, less than 20 nM.
On to `C=CC(=O)N1CCN(CCCc2cn3c(n2)c(-c2c(Cl)c(OC)cc(OC)c2Cl)cc2cnc(NCC(O)CO)nc23)CC1` (stereo not drawn) [Embodiment 10], for which the IC50 with Hep3B cells (Homo sapiens, Hep3B) was 20 to 200 nM; at FGFR1, less than 20 nM; on FGFR4, less than 20 nM.
With `C=CC(=O)N1CCN(CCCc2cn3c(n2)c(-c2c(F)c(OC)cc(OC)c2F)cc2cnc(NC)cc23)CC1` [Embodiment 2], the IC50 with Hep3B cells (Homo sapiens, Hep3B) is less than 20 nM; at FGFR1, less than 20 nM; on FGFR4, less than 20 nM.
Turning to `C=CC(=O)N1CCN(CCCc2cn3c(n2)c(-c2c(Cl)c(OC)cc(OC)c2Cl)cc2cnc(NCCN(C)C)nc23)CC1` [Embodiment 9], the IC50 with Hep3B cells (Homo sapiens, Hep3B) is 20 to 200 nM; at FGFR1 it was less than 20 nM; on FGFR4, less than 20 nM.
On to `C=CC(=O)N1CCN(CCCc2cn3c(n2)c(-c2c(Cl)c(OC)cc(OC)c2Cl)cc2cnc(NC)nc23)CC1(C)C` [Embodiment 14], for which the IC50 with Hep3B cells (Homo sapiens, Hep3B) was 20 to 200 nM; at FGFR1, less than 20 nM; on FGFR4, 20 to 200 nM.
For `C=CC(=O)N1CCN(CCCc2cn3c(n2)c(-c2c(Cl)c(OC)cc(OC)c2Cl)cc2cnc(NC)cc23)CC1` [Embodiment 5], the IC50 was less than 20 nM with Hep3B cells (Homo sapiens, Hep3B); less than 20 nM on FGFR1; less than 20 nM on FGFR4.
Take `C=CC(=O)N1CCN(CCCc2cn3c(n2)c(-c2c(F)c(OC)cc(OC)c2F)cc2cnc(NC)nc23)CC1` [Embodiment 1]: the IC50 in the experiment with Hep3B cells (Homo sapiens, Hep3B) was less than 20 nM; on FGFR1 it was less than 20 nM; at FGFR4 it was less than 20 nM.
